Like-named read-outs stand apart in the source and are kept apart here.
How the values were obtained:
[1] = biological target: T1, FL-SMARCA2 (full-length human SMARCA2 isoform 1) (Homo sapiens, UniProt P51531); experiment: SMARCA2 ATPase activity assay (ADP-Glo, chicken mononucleosome substrate); format: biochemical; details: ATP 250 uM
T1 construct: FLAG tag (YKDDDDK) (C); made in house; host or cells: Sf21 insect cells (baculovirus, pFastBacI)
Description: Molecular Biology: Full-length human SMARCA2 isoform 1 (P51531) transcript clone was amplified from a cDNA library incorporating an N-terminal HIS tag ([…]) fused directly to Ser2 of SMARCA2 and a C-FLAG tag (YKDDDDK) fused directly to Glu1590 of SMARCA2. The amplified gene was subcloned into pFastBacI (Life Technologies).
Protein Expression: Recombinant baculovirus were generated and protein over-expression was accomplished by infecting exponentially growing Sf21 insect cell culture at 1.24×10^6 cell/ml with an MOI of 0.1. Infections were carried out for 76 hours, harvested by centrifugation, and stored at −80° C. for purification.
Expressed full-length SMARCA2 was purified from cell paste by FLAG affinity chromatography followed by anion exchange chromatography. The protein was dialyzed into a storage buffer containing 25 mM HEPES, 300 mM KCl, 10% Glycerol, pH 7.9, 1 mM TCEP and 0.01% Tween-20. The purity of the protein was measured as 74% using micro-capillary based gel electrophoresis.

[2] = biological target: FL-SMARCA4 (Homo sapiens, UniProt P51532); experiment: SMARCA4 ATPase activity assay (ADP-Glo, chicken mononucleosome substrate)
FL-SMARCA4, sequence (P51532 whole entry): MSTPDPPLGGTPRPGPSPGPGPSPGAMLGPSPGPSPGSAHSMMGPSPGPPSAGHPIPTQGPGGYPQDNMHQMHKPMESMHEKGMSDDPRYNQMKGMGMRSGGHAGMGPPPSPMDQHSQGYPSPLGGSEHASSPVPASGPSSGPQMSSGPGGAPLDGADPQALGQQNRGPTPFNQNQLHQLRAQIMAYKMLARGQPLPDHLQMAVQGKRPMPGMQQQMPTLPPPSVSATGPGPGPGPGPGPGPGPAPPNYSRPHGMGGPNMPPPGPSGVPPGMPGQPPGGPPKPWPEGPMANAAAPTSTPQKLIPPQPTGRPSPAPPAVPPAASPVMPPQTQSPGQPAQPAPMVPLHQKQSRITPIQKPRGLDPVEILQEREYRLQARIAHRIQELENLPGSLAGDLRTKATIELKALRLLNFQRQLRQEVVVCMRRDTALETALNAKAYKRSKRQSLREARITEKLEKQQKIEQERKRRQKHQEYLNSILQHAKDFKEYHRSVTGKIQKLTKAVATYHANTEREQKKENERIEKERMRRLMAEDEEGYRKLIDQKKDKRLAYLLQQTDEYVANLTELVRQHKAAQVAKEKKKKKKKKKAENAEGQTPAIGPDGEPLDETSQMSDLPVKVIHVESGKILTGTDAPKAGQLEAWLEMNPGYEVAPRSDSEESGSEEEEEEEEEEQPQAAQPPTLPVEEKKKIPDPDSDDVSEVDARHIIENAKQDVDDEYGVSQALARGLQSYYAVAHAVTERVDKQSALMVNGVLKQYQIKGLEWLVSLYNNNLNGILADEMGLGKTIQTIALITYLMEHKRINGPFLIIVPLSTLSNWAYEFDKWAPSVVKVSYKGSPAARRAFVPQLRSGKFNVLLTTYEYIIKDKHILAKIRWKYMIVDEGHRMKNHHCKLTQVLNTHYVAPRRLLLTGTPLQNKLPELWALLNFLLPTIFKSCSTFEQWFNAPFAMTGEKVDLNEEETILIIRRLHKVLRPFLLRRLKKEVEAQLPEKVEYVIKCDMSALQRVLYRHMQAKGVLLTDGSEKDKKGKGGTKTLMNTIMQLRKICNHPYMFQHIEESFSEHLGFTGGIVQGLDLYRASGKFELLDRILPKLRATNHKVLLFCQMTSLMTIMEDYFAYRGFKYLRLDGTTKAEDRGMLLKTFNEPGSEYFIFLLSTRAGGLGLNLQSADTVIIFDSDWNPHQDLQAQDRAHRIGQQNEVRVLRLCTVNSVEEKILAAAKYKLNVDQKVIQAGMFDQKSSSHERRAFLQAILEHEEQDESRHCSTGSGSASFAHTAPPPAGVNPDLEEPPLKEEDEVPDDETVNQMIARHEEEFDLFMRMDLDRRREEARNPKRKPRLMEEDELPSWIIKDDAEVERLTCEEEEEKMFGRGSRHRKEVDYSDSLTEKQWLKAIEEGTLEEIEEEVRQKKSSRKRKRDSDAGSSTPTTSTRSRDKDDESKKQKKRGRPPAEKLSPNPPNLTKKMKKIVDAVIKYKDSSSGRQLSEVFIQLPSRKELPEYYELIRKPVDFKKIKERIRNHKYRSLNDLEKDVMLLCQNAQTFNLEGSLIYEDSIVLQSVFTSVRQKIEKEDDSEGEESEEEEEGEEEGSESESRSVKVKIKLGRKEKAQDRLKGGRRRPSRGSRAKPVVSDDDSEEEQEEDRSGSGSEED

[3] = Table 3.1, ATPase assay, enzyme 5 nM, chicken mononucleosome 10 nM, 30 min preincubation
[4] = FL-SMARCA4 IC50, Table 3.2, ATPase assay, enzyme 5 nM, ATP 250 uM, chicken mononucleosome 10 nM, 30 min preincubation
[5] = Table 3b.1, SMARCA2 5 nM, mononucleosome 10 nM
[6] = FL-SMARCA4 IC50, Table 3b.2, SMARCA4 5 nM, ATP 250 uM, mononucleosome 10 nM
[7] = Table 3c.1, ATPase assay, enzyme 5 nM, chicken mononucleosome 10 nM, 30 min preincubation
[8] = FL-SMARCA4 IC>50, Table 3c.2, ATPase assay, enzyme 5 nM, ATP 250 uM, chicken mononucleosome 10 nM, 30 min preincubation
[9] = Table 3a.1, SMARCA2 5 nM, mononucleosome 10 nM
[10] = FL-SMARCA4 IC50, Table 3a.2, SMARCA4 5 nM, ATP 250 uM, mononucleosome 10 nM

T1 sequence (P51531 with tags, fused parts or gaps): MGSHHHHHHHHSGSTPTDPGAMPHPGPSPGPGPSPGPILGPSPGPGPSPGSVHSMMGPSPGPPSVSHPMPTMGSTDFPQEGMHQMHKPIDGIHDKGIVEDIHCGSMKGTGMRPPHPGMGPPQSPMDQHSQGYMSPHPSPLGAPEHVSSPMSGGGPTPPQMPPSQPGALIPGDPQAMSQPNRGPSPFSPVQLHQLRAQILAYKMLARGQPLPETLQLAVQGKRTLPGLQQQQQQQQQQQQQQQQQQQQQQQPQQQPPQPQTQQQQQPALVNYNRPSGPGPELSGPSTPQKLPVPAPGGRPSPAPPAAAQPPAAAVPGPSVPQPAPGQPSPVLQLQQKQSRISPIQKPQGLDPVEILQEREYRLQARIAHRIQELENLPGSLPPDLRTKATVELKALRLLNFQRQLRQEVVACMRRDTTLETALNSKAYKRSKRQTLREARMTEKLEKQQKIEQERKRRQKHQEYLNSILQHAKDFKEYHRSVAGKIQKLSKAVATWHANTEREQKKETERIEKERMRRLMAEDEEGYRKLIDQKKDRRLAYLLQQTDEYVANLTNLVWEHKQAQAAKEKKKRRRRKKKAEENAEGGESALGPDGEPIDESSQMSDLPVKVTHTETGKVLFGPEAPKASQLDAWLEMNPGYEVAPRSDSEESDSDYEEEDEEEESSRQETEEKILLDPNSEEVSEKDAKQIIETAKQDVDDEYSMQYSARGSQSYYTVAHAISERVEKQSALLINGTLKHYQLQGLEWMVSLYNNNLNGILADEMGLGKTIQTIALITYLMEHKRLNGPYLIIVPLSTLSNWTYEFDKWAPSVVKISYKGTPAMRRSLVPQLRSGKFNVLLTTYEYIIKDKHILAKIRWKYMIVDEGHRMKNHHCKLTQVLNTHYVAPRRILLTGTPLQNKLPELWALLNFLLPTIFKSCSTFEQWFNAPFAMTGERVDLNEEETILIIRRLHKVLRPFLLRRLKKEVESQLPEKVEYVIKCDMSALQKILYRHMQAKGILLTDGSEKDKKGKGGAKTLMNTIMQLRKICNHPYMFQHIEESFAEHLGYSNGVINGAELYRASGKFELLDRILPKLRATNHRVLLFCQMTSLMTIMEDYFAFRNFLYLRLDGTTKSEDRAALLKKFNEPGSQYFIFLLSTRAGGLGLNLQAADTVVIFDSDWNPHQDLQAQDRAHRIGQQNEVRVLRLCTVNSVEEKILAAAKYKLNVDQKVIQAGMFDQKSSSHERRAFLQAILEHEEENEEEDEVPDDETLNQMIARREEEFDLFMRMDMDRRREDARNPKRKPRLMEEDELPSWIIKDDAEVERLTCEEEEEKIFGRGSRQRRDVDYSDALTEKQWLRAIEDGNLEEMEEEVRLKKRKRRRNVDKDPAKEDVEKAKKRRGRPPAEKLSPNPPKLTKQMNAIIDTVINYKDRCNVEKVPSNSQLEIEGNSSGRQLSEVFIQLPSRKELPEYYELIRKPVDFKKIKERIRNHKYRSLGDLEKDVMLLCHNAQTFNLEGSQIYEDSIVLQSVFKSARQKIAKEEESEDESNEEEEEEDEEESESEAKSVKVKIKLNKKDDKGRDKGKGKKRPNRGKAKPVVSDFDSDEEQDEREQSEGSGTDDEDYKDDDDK

Question: How did the IC50 [1, 3] turn out when `O=C(Nc1cc(F)c(=O)n(CCF)c1)c1ccc(-c2cccnc2)s1` [Compound 313] was run?
Answer: Its IC50 is greater than 50 µM.

Question: What about the IC50 [2, 4] of the same compound?
Answer: The IC50 was greater than 50 µM.

Question: `O=C(Nc1cc(F)c(=O)n(CCF)c1)c1ccc(C(F)(F)CO)s1` [Compound 322] was tested. Which IC50 [1, 3] did it give?
Answer: Its IC50 is greater than 50 µM.

Question: And the IC50 [2, 4]?
Answer: The IC50 was greater than 50 µM.

Question: `CC(=O)Nc1ccc(C(=O)Nc2cc(F)c(=O)n(CCF)c2)cc1Cl` [Compound 22b] was tested. Which IC50 [1, 5] did it give?
Answer: Its IC50 is greater than 50 µM.

Question: What about the IC50 [2, 6] of the same compound?
Answer: The IC50 was greater than 50 µM.

Question: What does the source list for `CCn1cc(NC(=O)c2cc(Cl)n(C)c2)ccc1=O` [Compound 70]?
Answer: IC50 [1, 3]: 16.7 µM; IC50 [2, 4]: > 50 µM

Question: How did the IC50 [1, 3] turn out when `Cn1c(C(=O)Nc2cc(C#N)c(=O)n(CC(F)(F)F)c2)cnc1Cl` [Compound 214] was run?
Answer: Its IC50 is 29.9 µM.

Question: What about the IC50 [2, 4] of the same compound?
Answer: Its IC50 is greater than 50 µM.

Question: What does the source list for `O=C(Nc1cc(CO)c(=O)n(CC(F)F)c1)c1cc(F)c(Cl)s1` [Compound 12c]?
Answer: IC50 [1, 7]: 34.8 µM; IC50 [2, 8]: > 50 µM

Question: With `CCn1cc(NC(=O)c2cc(Cl)ns2)ccc1=O` [Compound 107] as the compound, how does the IC50 [1, 3] read?
Answer: The IC50 was 36.7 µM.

Question: What about the IC50 [2, 4] of the same compound?
Answer: The IC50 was greater than 50 µM.

Question: `COc1cc(Cl)c(Cl)cc1C(=O)Nc1cc(F)c(=O)n(CC(F)F)c1` [Compound 40d] was tested. Which IC50 ([1]; Table 3d.1, ATPase assay, enzyme 5 nM, chicken mononucleosome 10 nM, 30 min preincubation, read-out: FL-SMARCA2 IC>50) did it give?
Answer: The IC50 was greater than 50 µM.

Question: And the IC50 ([2]; FL-SMARCA4 IC50)?
Answer: Its IC50 is greater than 50 µM.

Question: Which results are given for `CCn1cc(NC(=O)c2cccc(Cl)c2F)ccc1=O` [Compound 10b]?
Answer: IC50 [1, 5]: > 50 µM; IC50 [2, 6]: > 50 µM

Question: Which results are given for `O=C(Nc1cc(F)c(=O)n(CC(F)(F)F)c1)c1cnc(Cl)o1` [Compound 273]?
Answer: IC50 [1, 3]: > 50 µM; IC50 [2, 4]: > 50 µM

Question: With `CCn1cc(NC(=O)c2cc(Cl)c(Cl)s2)cc(OC)c1=O` [Compound 110] as the compound, how does the IC50 [1, 3] read?
Answer: Its IC50 is greater than 50 µM.

Question: What about the IC50 [2, 4] of the same compound?
Answer: The IC50 was greater than 50 µM.

Question: Which results are given for `CC(=O)Nc1sc(C(=O)Nc2cc(F)c(=O)n(CCF)c2)cc1Cl` [Compound 315]?
Answer: IC50 [1, 3]: > 50 µM; IC50 [2, 4]: > 50 µM

Question: What does the source list for `N#Cc1cc(NC(=O)c2cc(Cl)c(Cl)s2)cn(CCF)c1=O` [Compound 193]?
Answer: IC50 [1, 3]: 1.23 µM; IC50 [2, 4]: 8.93 µM

Question: With `CCn1cc(NC(=O)c2cc(OC)c(O)s2)ccc1=O` [Compound 179] as the compound, how does the IC50 [1, 3] read?
Answer: The IC50 was greater than 50 µM.

Question: And the IC50 [2, 4]?
Answer: Its IC50 is greater than 50 µM.

Question: What does the source list for `O=C(Nc1ccc(=O)n(CC(F)(F)F)c1)c1cc(Cl)c(Cl)s1` [Compound 75]?
Answer: IC50 [1, 3]: 0.437 µM; IC50 [2, 4]: 1.52 µM

Question: How did the IC50 [1, 3] turn out when `CCn1cc(NC(=O)c2cnc(Cl)s2)ccc1=O` [Compound 69] was run?
Answer: The IC50 was 2.52 µM.

Question: And the IC50 [2, 4]?
Answer: The IC50 was 11.7 µM.

Question: How did the IC50 [1, 3] turn out when `CCCn1cc(NC(=O)c2cc(Cl)c(Cl)n2C)ccc1=O` [Compound 68] was run?
Answer: The IC50 was 8.55 µM.

Question: And the IC50 [2, 4]?
Answer: Its IC50 is greater than 50 µM.

Question: What does the source list for `CCn1cc(NC(=O)n2ncc3ccccc32)ccc1=O` [Compound 31a]?
Answer: IC50 [1, 9]: > 50 µM; IC50 [2, 10]: > 50 µM

Question: For `Cn1c(C(=O)Nc2ccc(=O)n(CC(F)(F)F)c2)cc(Cl)c1Cl` [Compound 53], which IC50 [1, 3] is on record?
Answer: The IC50 was 1.48 µM.

Question: What about the IC50 [2, 4] of the same compound?
Answer: The IC50 was 16.7 µM.

Question: How did the IC50 [1, 3] turn out when `O=C(Nc1ccc(=O)n(CC(F)(F)F)c1)c1cc(Cl)c(Cl)n1CCF` [Compound 85] was run?
Answer: The IC50 was 12 µM.

Question: And the IC50 [2, 4]?
Answer: Its IC50 is 34.7 µM.

Question: What does the source list for `N#Cc1cc(C(=O)Nc2cc(Cl)c(=O)n(CC(F)(F)F)c2)sc1Cl` [Compound 208]?
Answer: IC50 [1, 3]: 0.123 µM; IC50 [2, 4]: 0.632 µM

Question: Which results are given for `COc1nc(C#Cc2cc(C(=O)Nc3cc(F)c(=O)n(CC(F)F)c3)sc2Cl)cs1` [Compound 107c]?
Answer: IC50 [1, 7]: 0.0508 µM; IC50 [2, 8]: 0.142 µM

Question: `CN(C)C(=O)c1ccc(C(=O)Nc2cc(F)c(=O)n(CCF)c2)s1` [Compound 306] was tested. Which IC50 [1, 3] did it give?
Answer: The IC50 was greater than 50 µM.

Question: What about the IC50 [2, 4] of the same compound?
Answer: Its IC50 is greater than 50 µM.

Question: For `Cc1cc(NC(=O)c2cc(Cl)c(Cl)s2)cn(C)c1=O` [Compound 177], which IC50 [1, 3] is on record?
Answer: Its IC50 is greater than 50 µM.

Question: And the IC50 [2, 4]?
Answer: The IC50 was greater than 50 µM.

Question: With `CCn1cc(NC(=O)c2[nH]c3ccccc3c2C)ccc1=O` [Compound 18a] as the compound, how does the IC50 [1, 9] read?
Answer: Its IC50 is greater than 50 µM.

Question: What about the IC50 [2, 10] of the same compound?
Answer: Its IC50 is greater than 50 µM.

Question: With `CCn1cc(NC(=O)c2ccc(Cl)c(C)n2)ccc1=O` [Compound 35a] as the compound, how does the IC50 [1, 9] read?
Answer: The IC50 was greater than 50 µM.

Question: And the IC50 [2, 10]?
Answer: Its IC50 is greater than 50 µM.

Question: How did the IC50 [1, 9] turn out when `COc1ccc2nc(C(=O)Nc3cc(F)c(=O)n(CCF)c3)sc2c1` [Compound 62a] was run?
Answer: The IC50 was 44 µM.

Question: And the IC50 [2, 10]?
Answer: The IC50 was 48.2 µM.

Question: Which results are given for `N#Cc1sc(C(=O)Nc2ccc(=O)n(CC(F)(F)F)c2)cc1Cl` [Compound 127]?
Answer: IC50 [1, 3]: 0.252 µM; IC50 [2, 4]: 0.527 µM

Question: With `CCn1cc(N(C)C(=O)c2cc(Cl)c(Cl)n2C)ccc1=O` [Compound 71a] as the compound, how does the IC50 [1, 9] read?
Answer: Its IC50 is 2.72 µM.

Question: And the IC50 [2, 10]?
Answer: Its IC50 is 39.6 µM.

Question: How did the IC50 [1, 3] turn out when `CCn1cc(NC(=O)c2cnc(NC3CCCC3)s2)ccc1=O` [Compound 216] was run?
Answer: Its IC50 is greater than 50 µM.

Question: And the IC50 [2, 4]?
Answer: The IC50 was greater than 50 µM.

Question: With `CCn1cc(NC(=O)c2nc(Cl)c(Cl)s2)ccc1=O` [Compound 64] as the compound, how does the IC50 [1, 3] read?
Answer: The IC50 was greater than 50 µM.

Question: And the IC50 [2, 4]?
Answer: The IC50 was greater than 50 µM.

Source: US20220356174A1, “PYRIDIN-2-ONE COMPOUNDS USEFUL AS SMARCA2 ANTAGONISTS” (Epizyme, Inc., priority 2018, published 2022)
